Measurements as given in US10626100B2, “Selective HDAC6 inhibitors” (The Trustees of Columbia University in the City of New York, priority 2013, dated 2020).
“Also recorded” adds a separate entry of the source.

Tests used:
[1] = system: HFS (human foreskin fibroblast) cells; test: Cell growth and viability of HFS normal cells; type: cell-based
Method: (§1) FIG. 3. Cell growth of HFS (normal) and LNCaP (transformed) cells treated with compound 8 over 72 h.
(§2) FIG. 4. Cell viability of HFS (normal) and LNCaP (transformed) cells treated with compound 8 over 72 h.
(§3) Recombinant HDAC1 and HDAC6 are used to evaluate the selective inhibitory potency of each compound. Cell based assays: Normal cells (Human Foreskin Fibroblast cells), LNCaP (human prostate cancer cells), MCF-7 (human breast cancer cells, A549 (human adenocarcinoma of lung cells) and ARP-1 (human multiple myeloma cells) are used in these assays. Cells were cultured for up to 72 hr without and with the potential HDAC6-selective inhibitor. SAHA was used as a control. Cell number and cell viability were determined by enumeration. Proteins were extracted from cells and assayed for accumulation of acetylated tubulin and acetylated histones. All methods are described in Namdar et al., PNAS, 2010, 107:20003-8. In vivo animal studies: Potential HDAC6 inhibitor compounds are further assayed by administration to mice for up to 5 days with daily injections. Animals are sacrificed and tissues are analyzed for accumulation of acetylated tubulin and acetylated histones.
(§4) The effect of compound 8 on the cell growth and viability of normal (HFS, human foreskin fibroblast) and transformed (LNCaP, human prostate adenocarcinoma) cells cultured with 8, 16, 32 or 64 μM HPB for up to 72 h was evaluated.

[2] = system: acetylated alpha-tubulin and acetylated histone H3 in LNCaP (human prostate cancer cells); test: Accumulation of acetylated proteins in LNCaP cells (western blot); type: cell-based; details: transformed cells, concentrations as high as 16 μM
HDAC1 = HDAC1 (Homo sapiens, UniProt Q13547); test: Inhibition of recombinant HDAC1; type: biochemical; details: read-out: IC50 (nM) HCAC1
HDAC1, sequence (Q13547 whole entry): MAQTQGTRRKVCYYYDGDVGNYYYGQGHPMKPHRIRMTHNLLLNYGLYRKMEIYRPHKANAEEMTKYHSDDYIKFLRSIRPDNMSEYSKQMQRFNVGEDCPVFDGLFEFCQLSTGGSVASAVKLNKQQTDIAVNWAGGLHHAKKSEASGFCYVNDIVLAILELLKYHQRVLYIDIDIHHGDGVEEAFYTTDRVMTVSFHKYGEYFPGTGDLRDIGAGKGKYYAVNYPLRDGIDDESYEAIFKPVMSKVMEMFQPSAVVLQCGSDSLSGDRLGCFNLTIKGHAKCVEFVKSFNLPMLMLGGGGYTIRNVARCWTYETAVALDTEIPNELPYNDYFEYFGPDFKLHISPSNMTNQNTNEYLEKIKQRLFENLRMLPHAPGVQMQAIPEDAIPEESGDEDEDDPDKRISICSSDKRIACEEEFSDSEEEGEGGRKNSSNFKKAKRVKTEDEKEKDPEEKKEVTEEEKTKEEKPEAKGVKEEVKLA

[3] = system: androgen-dependent CWR22 human prostate cancer xenograft; test: CWR22 human prostate cancer xenograft in nude mice; type: in vivo
[4] = system: LNCaP (human prostate adenocarcinoma) cells; test: Cell growth and viability of LNCaP cells; type: cell-based
Method: as §1, §2, §3, §4

HFS (normal) cells = test: Combination with anti-cancer agents in HFS cells; type: cell-based, human; details: compound 8 alone or in combination with etoposide, paclitaxel, or SAHA, 72 h
HDAC6 = biological target: T1, HDAC6 (Homo sapiens, UniProt Q9UBN7); test: Inhibition of recombinant HDAC6
T1 sequence (Q9UBN7 1-1215): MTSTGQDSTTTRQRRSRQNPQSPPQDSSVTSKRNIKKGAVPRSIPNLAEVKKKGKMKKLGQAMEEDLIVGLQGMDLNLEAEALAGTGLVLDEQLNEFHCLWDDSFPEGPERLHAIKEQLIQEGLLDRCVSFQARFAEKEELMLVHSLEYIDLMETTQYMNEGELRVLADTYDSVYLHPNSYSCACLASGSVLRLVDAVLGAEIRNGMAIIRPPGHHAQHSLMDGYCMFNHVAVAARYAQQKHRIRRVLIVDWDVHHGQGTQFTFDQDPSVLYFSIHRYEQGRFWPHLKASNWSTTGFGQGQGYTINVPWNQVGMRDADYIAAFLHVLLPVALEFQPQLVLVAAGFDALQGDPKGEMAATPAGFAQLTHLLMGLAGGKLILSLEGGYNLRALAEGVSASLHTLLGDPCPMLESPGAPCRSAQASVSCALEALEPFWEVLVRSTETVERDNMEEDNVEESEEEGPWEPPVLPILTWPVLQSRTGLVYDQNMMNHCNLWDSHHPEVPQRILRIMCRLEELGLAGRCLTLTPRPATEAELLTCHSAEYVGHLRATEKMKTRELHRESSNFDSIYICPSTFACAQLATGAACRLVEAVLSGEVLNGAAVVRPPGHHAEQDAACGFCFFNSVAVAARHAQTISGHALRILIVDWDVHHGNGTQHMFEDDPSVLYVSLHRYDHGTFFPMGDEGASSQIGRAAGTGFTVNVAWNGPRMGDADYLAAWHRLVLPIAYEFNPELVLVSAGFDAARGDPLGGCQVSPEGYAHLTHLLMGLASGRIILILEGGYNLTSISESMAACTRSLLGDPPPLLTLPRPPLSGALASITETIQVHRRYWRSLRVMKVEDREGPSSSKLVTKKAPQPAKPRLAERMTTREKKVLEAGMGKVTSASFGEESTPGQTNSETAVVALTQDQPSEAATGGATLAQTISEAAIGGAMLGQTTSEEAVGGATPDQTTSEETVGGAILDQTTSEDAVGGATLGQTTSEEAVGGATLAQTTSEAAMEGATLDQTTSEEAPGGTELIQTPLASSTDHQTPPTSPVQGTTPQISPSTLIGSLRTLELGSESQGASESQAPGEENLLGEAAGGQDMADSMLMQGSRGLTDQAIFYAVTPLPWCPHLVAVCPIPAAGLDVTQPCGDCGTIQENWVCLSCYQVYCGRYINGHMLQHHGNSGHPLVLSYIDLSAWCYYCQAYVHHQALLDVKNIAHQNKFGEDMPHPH

[5] = system: acetylated alpha-tubulin and histones in CWR22 tumors and spleen; test: Acetylated lysine patterns in CWR22 tumors and spleen; type: in vivo, nude mice
Description: Tumors and spleen are removed from the animals, and histones and proteins are extracted for the detection of acetylated lysine patterns.

[6] = system: acetylated alpha-tubulin and acetylated histone H3 in spleen; test: Acetylation of alpha-tubulin and histones in spleen of treated mice; type: in vivo
Method: FIG. 7. Immunoblots of spleens harvested at indicated times after the last injection. Immune-deficient mice were treated daily by 30 μL intraperitoneal injection with indicated doses of compound 8. DMSO is the vehicle control. Western blots of acetylated alpha-tubulin (Acet-Tub) and acetylated histone H3 (Acet-H3). Western blots of HSP90 and total histone H3 (Total-H3) are loading controls.
as §3
Toxicity of compound 8 in mice was determined. […] Mice were intraperitoneally injected daily for 5 days with 100, 200, or 300 mg/kg compound 8. […] The effects of compound 8 on the acetylation of alpha-tubulin and histones in the spleen isolated from mice treated with compound 8 were analyzed at three time points after the administration of the drug.

[7] = 21 days, daily 300 mg/kg compound 8 or weekly 3 mg/kg etoposide alone

O=C(NO)c1ccc(CN(CCO)C(=O)Cc2ccccc2)cc1 [Compound 8, N-hydroxy-4-((N-(2-hydroxyethyl)-2-phenylacetamido)methyl) benzamide]
cell growth ([1]; HFS, 8, 16, 32 or 64 μM, up to 72 h, FIG. 3): inhibited cell growth of normal and transformed cells in a concentration dependent manner
cell death / cell viability ([1]; HFS, 8, 16, 32 or 64 μM, up to 72 h, FIG. 4): did not induce cell death of normal or transformed cells
normal cell death ([1]; concentrations ≤16 μM): do not induce normal cell death
accumulation of acetylated PRX [2]: selectively induced accumulation of acetylated alpha-tubulin and acetylated PRX
IC50 (HDAC1): 1130 nM
growth of established CWR22 tumors, single agent [3, 7]: no significant suppression of the growth
weight loss, single agent [3, 7]: no weight loss
growth of established CWR22 tumors, combination with etoposide ([3]; daily compound 8 and weekly etoposide, versus vehicle-treated control animals): causes suppression of the growth of established CWR22 tumors; also recorded: significantly enhances the anti-tumor effect of etoposide
cell growth (cell number) ([4]; LNCaP, 8, 16, 32 or 64 μM, up to 72 h, FIG. 3): inhibited cell growth of normal and transformed cells in a concentration dependent manner; also recorded: inhibited cell number
cell death / cell viability ([4]; LNCaP, 8, 16, 32 or 64 μM, up to 72 h, FIG. 4): did not induce cell death of normal or transformed cells; also recorded: does not decrease cell viability
death of LNCaP cells ([4]; concentrations as high as 32 μM): no detectable death of LNCaP cells
cell growth (HFS (normal) cells): inhibits cell growth
cell viability (HFS (normal) cells): does not induce loss of cell viability
potency as inhibitor of HDAC6 compared with SAHA (HDAC6): one hundred fold more potent
IC50 (HDAC6; read-out: IC50 (nM) HCAC6, recombinant HDAC6): 31 nM
accumulation of acetylated alpha-tubulin in CWR22 tumors and spleen, combination with etoposide ([5]; combination of compound 8 and etoposide): increased accumulation of acetylated alpha-tubulin
accumulation of histones in tumors, combination with etoposide ([5]; combination of etoposide and compound 8): Increased levels of accumulation of histones
accumulation of histones in tumors, single agent ([5]; mice injected with compound 8 alone or etoposide): not with compound 8 alone
accumulation of acetylated alpha-tubulin in CWR22 tumors and spleen, single agent ([5]; mice treated with compound 8 or etoposide): increased accumulation of acetylated alpha-tubulin
accumulation of acetylated tubulin in the spleen ([6]; 1.5 h after injection, FIG. 7): increased accumulation of acetylated tubulin
accumulation of acetylated tubulin in the spleen ([6]; 5 h after injection): reduced to the level seen in vehicle-treated controls
accumulation of acetylated histones in the spleen ([6]; FIG. 7): no detectable accumulation of acetylated histones
